According to US12161653B2, “Treatment of submental fat” (Allergan Sales, LLC, priority 2011, dated 2024):

Experiments:
[1] = test system: submental fat (SMF); assay: Example 3 phase II placebo-controlled study (CR-SMFRS, PR-SMFRS, PR-SMFIS, MRI, other scales); format: in vivo, human; settings: for number of patients having at least 1-point improvement (CR-SMFRS) vs placebo group: week 16, 24 and 32
Method: A clinical study was conducted to evaluate the effectiveness of various doses of sodium deoxycholate in removing undesired submental fat (SMF) deposits. This clinical study was multicenter, randomized, double-blind, placebo-controlled study of sodium deoxycholate injection (“SDI” or alternatively “ATX-101”) versus placebo for the reduction of localized subcutaneous fat in the submental area (SMF) using magnetic resonance imaging (MRI) and a battery of clinician- and subject-reported measurements.
Study Design: FIG. 2 depicts the study Design and Treatment Schema associated with this procedure. This was a multicenter, randomized, double-blind, placebo-controlled study in which approximately 120 subjects received either up to 50 mg SDI, up to 100 mg SDI, or placebo in a 1:1:1 ratio (5 mg/mL:10 mg/mL:placebo) as indicated below, to evaluate the safety and efficacy of fixed concentrations of SDI given in up to 50 0.2-mL injections in up to 6 treatment sessions. No subject received more than 10 mL in any treatment session, nor did any subject undergo more than 6 treatment sessions. The initial 30 subjects were enrolled in a 2:2:1 ratio (i.e., 12, 12 and 6 subjects per group, for the two SDI groups and placebo, respectively) and the remaining subjects were randomized to balance the enrollment (approximately 28, 28, and […] per group for the two SDI groups and placebo, respectively).
To measure changes in SMF volume and thickness, MRI acquisitions were repeated prior to each treatment session and post-treatment (4 and 12 weeks after the last treatment cycle). Before subjects completed each MRI visit, the MRI images were evaluated for acceptability.
Subjects who successfully completed screening and baseline evaluations received up to 50 injections (0.2 mL each for a maximum volume of 10 mL) per treatment session, depending upon size and configuration of the SMF. Treatment was given at 4-week (±5 days) intervals. Study material injection sites were positioned using a 1.0 cm grid, which is designed to achieve an appropriate distribution of injections across the submental area.
Study Material, Dose, and Route of Administration: SDI (sodium deoxycholate injection) was provided in a concentration of 5 mg/mL (0.5%) and 10 mg/mL (1.0%) in 10 mM sodium phosphate, 0.9% (weight per volume [w/v]) sodium chloride, and 0.9% (w/v) benzyl alcohol in water for injection (WFI). Each vial (for single use only) contained at least 2.0 mL of accessible material, accessed by means of sterile syringe and needle through a rubber stopper closure.
Evaluation of Efficacy: The effects of 5 mg/mL SDI and 10 mg/mL SDI transcutaneous injections in the submental area were evaluated relative to placebo by measuring the following: (1) the reduction of fat using Clinician-Reported Submental Fat Rating Scale (CR-SMFRS), Patient-Reported Submental Fat Rating Scale (PR-SMFRS), and Patient-Reported Submental Fat Impact Scale (PR-SMFIS); (2) the volume of SMF using MRI; and (3) the thickness of SMF using MM. The efficacy evaluation criteria included: Clinician-Reported Submental Fat Rating Scale (CR-SMFRS), Patient-Reported Submental Fat Rating Scale (PR-SMFRS), Patient-Reported Submental Fat Impact Scale (PR-SMFIS) scores, and Magnetic resonance imaging (MM).
Other Evaluations: The effects of 5 mg/mL SDI and 10 mg/mL SDI transcutaneous injections in the submental area, relative to placebo, for changes in skin laxity (SLRS), Subject Self Rating Scale (SSRS), and subject-reported outcome measures (Self-Ratings of Attractiveness, Derriford Appearance Scale [DAS], Body Image Quality of Life Inventory [BIQLI]), other Subject-Reported Questions, and Post-treatment Questions) were evaluated. Measurements of the thickness of fat in the submental area were made using calipers. Photographs were taken to document treatment effects. […]

[2] = test system: submental fat (SMF) deposits; assay: Example 2 placebo-controlled clinical study, SMF rating scale; format: in vivo, human; settings: for change from baseline at week 16 compared to placebo in SMF rating scale score: significance (ANCOVA): every 4 weeks, up to 4 treatments
Method: A clinical study was conducted to evaluate the effectiveness of various doses of sodium deoxycholate in removing undesired submental fat (SMF) deposits. A multicenter, randomized, double-blind, placebo-controlled, parallel-group comparison of 3 concentrations of sodium deoxycholate (0.5, 1.0, and 2.0 percent w/v) in sterile water with 0.9% benzyl alcohol and placebo was conducted to determine the efficacy of reduction in SMF deposits. Placebo injection consisted of sterile water with 0.9% benzyl alcohol.
All subjects were to have up to 4 treatment sessions at intervals of no less than 4 weeks (±3 days) between treatments.
Eligible subjects were concurrently randomized into one of the following groups: • Placebo injected every 4 weeks for up to 4 treatments • 0.5% w/v sodium deoxycholate injected every 4 weeks for up to 4 treatments • 1.0% w/v sodium deoxycholate injected every 4 weeks for up to 4 treatments • 2.0% w/v sodium deoxycholate injected every 4 weeks for up to 4 treatments
85 subjects were randomized: 21 subjects to the 0.5% w/v sodium deoxycholate group, 20 subjects to the 1.0% w/v sodium deoxycholate group; 22 subjects to the 2.0% w/v sodium deoxycholate (DCA) group; and 22 subjects to the placebo group. 73 subjects completed the study.
Subject selection included males or non-pregnant, non-lactating females aged 25 to 65 years, inclusive, on the date of randomization, with SMF that was considered undesirable by the subject and graded by the investigator as 2 or 3 using the SMF rating scale, and a history of maintenance of a stable body weight, in the judgment of the investigator, for at least 6 months before randomization.

[3] = test system: submental fat; assay: Earlier clinical studies of SDI for submental fat (SMFRS, SSRS); format: in vivo, human
Method: (§1) A total of 274 subjects participated in 6 Phase ½ clinical studies that were conducted with SDI. Of these, 3 studies (n=179) evaluated SDI for the treatment of submental fat (SMF). Two studies evaluated SDI for the treatment of superficial lipoma. One study (SDI-08-10) evaluated the histological effects of SDI in subcutaneous abdominal tissue in subjects scheduled to undergo abdominoplasty.
The SMF scale used to assess efficacy in clinical studies with SDI has been validated and shown to be reliable. […] The expected improvement from treatment with SDI is consistent with what patients who desire aesthetic changes would find satisfactory.

[4] = test system: caudal lateral fat pads; assay: Fat pad necrosis in Zucker rats after a single injection; format: in vivo; settings: for effectiveness: Zucker rats and clinical studies
Method: In the rats study, 8 rats received a single injection into the caudal lateral fat pads of 2.5 mL deoxycholic acid at 1%, 0.5%, 0.25%, or 0.1% concentrations, or 2.5 mL vehicle (0.9% benzyl alcohol in water).

[5] = In vitro micelle formation; format: physicochemical
Text: When secreted into the small intestine, bile acids form micelles with dietary fats to aid in lipolysis and lipid absorption.

[6] = Pharmacokinetics of SDI in clinical studies (plasma deoxycholate); format: in vivo; settings: human
Method: (§2) The most commonly observed adverse events associated with the treatment area include pain, erythema, induration, swelling, bruising, and numbness. Less frequently, pruritus and paresthesia have been reported. […] The pharmacokinetics of SDI is linear, illustrating the predictable overall exposure. Plasma concentrations were transient with peak concentrations observed at approximately 15 to 30 minutes, returning to endogenous deoxycholate levels within 24 hours after dosing.

[7] = Phase 1/2 clinical studies with SDI: safety; format: in vivo, human
Method: as §1, §2

[8] = test system: subcutaneous abdominal tissue; assay: Clinical trial: histological changes, efficacy and safety by concentration; format: in vivo, human
Method: These findings are consistent with the increased intensity of adverse effects at the higher concentrations and larger volumes administered (0.4 mL/injection) in clinical trials. […] Concentrations at or below 0.25% were not tested, as they are at or below the concentration necessary to form micelles. The formation of micelles is essential for lipolytic activity.
as §1

C[C@H](CCC(=O)[O-])[C@H]1CC[C@H]2[C@@H]3CC[C@@H]4C[C@H](O)CC[C@]4(C)[C@H]3C[C@H](O)[C@]12C.[Na+] [sodium deoxycholate]
CR-SMFRS change from baseline (FIG. 4) ([1]; 0.5%): marked reduction of submental fat as compared with placebo | SMF thickness and volume by MRI ([1]; 0.5%): statistically significant reduction | SSRS, patient impact scores, patient impact questionnaire, improvement in appearance of the chin and satisfaction ([1]; 0.5%): statistically significant changes | number of patients having at least 1-point improvement (CR-SMFRS) vs placebo group ([1]; 0.5%): greater | CR-SMFRS change from baseline (FIG. 4) ([1]; 1.0%): marked reduction of submental fat as compared with placebo | SMF thickness and volume by MRI ([1]; 1.0%): statistically significant reduction | SSRS, patient impact scores, patient impact questionnaire, improvement in appearance of the chin and satisfaction ([1]; 1.0%): statistically significant changes | statistical significance of CR-SMFRS reduction vs placebo ([1]; 1.0%): statistically significant at most time points | dose response by CR-SMFRS ([1]; 1.0% and 0.5%): good dose response | dose response by PR-SMFRS ([1]; 1.0% and 0.5%): good dose response | SMF thickness and volume by MRI, compared with 0.5% ([1]; 1.0% vs 0.5%): better dose response and greater reduction | relative effectiveness by CR-SMFRS ([1]; 1.0% vs 0.5%): more effective than 0.5% | relative effectiveness by PR-SMFRS ([1]; 1.0% vs 0.5%): more effective than 0.5% | number of patients having at least 1-point improvement (CR-SMFRS) vs placebo group ([1]; 1.0%): greater | 1-grade reduction, CR-SMFRS ([1]; 1.0%, week 16 and week 32): Statistically significance was obtained | 1-grade reduction, PR-SMFRS ([1]; 1.0%, week 16 and week 32): Statistically significance was obtained | 2-grade reduction, PR-SMFRS ([1]; 1.0%, week 32): Statistically significance was obtained | CR-SMFRS with BMI as a standard (FIG. 18) ([1]; ATX-101 treatments): significant submental fat reduction | CR-SMFRS/body weight ratio ([1]; FIGS. 20 and 21): decreased significantly | time points with statistically significant change from baseline in SMF rating scale score compared to placebo ([2]; 0.5% w/v): weeks 8, 12, 16 and 24 | change from baseline at week 16 compared to placebo in SMF rating scale score: significance (ANCOVA) ([2]; 0.5% w/v): statistically significant | time points with statistically significant improvement in SMF rating scale score compared to placebo ([2]; 1.0% w/v): weeks 12, 16 and 24 | change from baseline at week 16 compared to placebo in SMF rating scale score: significance (ANCOVA) ([2]; 1% w/v): statistically significant | relative effectiveness by visual assessment methods ([2]; 2.0% vs 1.0% or 0.5%): less effective than ATX-101 1.0% or 0.5% | time points with statistically significant improvement in SMF rating scale score compared to placebo ([2]; 2% w/v): only at week 24 | change from baseline at week 16 compared to placebo in SMF rating scale score: significance (ANCOVA) ([2]; 2% w/v): not | SSRS scores ([3]; 0.5% [0.2 mL/1.0 cm]): significantly better than placebo | change in SMFRS score at Week 16 ([3]; 0.5% [0.2 mL/1.0 cm]): significantly better than placebo | SSRS scores ([3]; 1.0% [0.2 mL/1.0 cm]): significantly better than placebo | change in SMFRS score at Week 16 ([3]; 1.0% [0.2 mL/1.0 cm]): significantly better than placebo | effectiveness ([4]; 0.5% w/v): effective | effectiveness ([4]; 1.0% w/v): effective | effect compared with vehicle ([4]; doses at and below 0.25%): no different than vehicle | minimal concentration at which micelle formation was observed [5]: 0.25 % w/v | pharmacokinetics (linearity) [6]: linear | time of peak plasma concentrations [6]: 15 to 30 min | time to return to endogenous deoxycholate levels after dosing [6]: ≤ 24 h | safety profile across studies ([7]; 0.5% vs 2.0% and 4.0%): better safety profile than the higher concentrations | safety profile across studies ([7]; 1.0% vs 2.0% and 4.0%): better safety profile than the higher concentrations | safety and tolerability ([7]; all concentrations in clinical studies): safe and well tolerated | adverse events ([7]; clinical studies, not systemic): local, transient injection site reactions of mild to moderate intensity

C[C@H](CCC(=O)O)[C@H]1CC[C@H]2[C@@H]3CC[C@@H]4C[C@H](O)CC[C@]4(C)[C@H]3C[C@H](O)[C@]12C [deoxycholic acid]
histological changes ([8]; 2.0%): marked necrosis, resulting in lipid lake formation and vessel damage | histological changes ([8]; 4.0%): marked necrosis, resulting in lipid lake formation and vessel damage | fat pad necrosis relative to 0.5% ([4]; 1.0% vs 0.5%, single 2.5 mL injection): approximately 2.5 times
